Assay results published in ChEMBL document CHEMBL5532661, “Discovery of a Novel Glucagon-like Peptide-1 (GLP-1) Analogue from Bullfrog and Investigation of Its Potential for Designing GLP-1-Based Multiagonists” (J Med Chem, 2024).
Active and inactive are the calls of the source. The calls are words filed in the database; no cut-off is given here. Numbered stars: 1 amine (or outer) side, 2 acyl side, 3 side chain; on linkers, the order of the positions; unused ones are H or OH. Square brackets hold non-standard residues; d marks the D form. Side chains are listed from the residue outwards. Peptide text beside a SMILES is read from it. * marks the point of attachment. C18 diacid = O=C(O)CCCCCCCCCCCCCCCCC(=O)*; γGlu = O=C(O)[C@H](CCC(=O)[*:2])N[*:1]; AEEA = NCCOCCOCC(=O)O; Aib = CC(C)(N)C(=O)O

Key:
[1] = biological target: T1, Glucagon-like peptide 1 receptor (Homo sapiens, UniProt P43220); experiment: Agonist activity at human GLP-1 receptor expressed in HEK293 cells assessed as cAMP level measured after 60 mins by HTRF based assay; type: functional, cell-based
[2] = test system: Mus musculus; experiment: Reduction in feed intake in DIO mouse at 30 nmol/kg, sc treated twice a day measured after 21 days; type: functional, organism-based; details: time 21.0 day
[3] = test system: Mus musculus; experiment: Reduction in serum AST in DIO mouse at 30 nmol/kg, sc treated every 2 and half day once measured after 21 days; type: functional, organism-based; details: time 21.0 day
[4] = biological target: Glucagon receptor (Mus musculus) (UniProt Q61606); experiment: Potency index, ratio of glucagon EC50 to test compound EC50 for agonist activity at mouse GCGR expressed in HEK293 cells assessed as cAMP level measured after 60 mins by HTRF based assay; type: functional, cell-based; details: filed as agonist
[5] = test system: Mus musculus; experiment: Anorexigenic effect in sc dosed ICR mouse assessed as decrease in food intake measured upto 72 hrs by acute food intake study; type: functional, organism-based; details: dose 10-100 nmol/kg
[6] = test system: Mus musculus; experiment: Hypoglycemic effect in ICR mouse treated with 3 g/kg glucose assessed as reduction in blood glucose level at 100 nmol/kg, sc measured upto 120 mins by acute glucose lowering test; type: functional, organism-based
[7] = test system: Mus musculus; experiment: Antihyperglycemic effect in DIO mouse assessed as antihyperglycemic duration by measuring blood glucose at 30 nmol/kg, sc administered twice daily measured by hypoglycemic duration assay; type: functional, organism-based
[8] = test system: Mus musculus; experiment: Antihyperglycemic effect in DIO mouse assessed as antihyperglycemic duration by measuring blood glucose at 30 nmol/kg, sc measured after 48 hrs by hypoglycemic duration assay; type: functional, organism-based
[9] = test system: Mus musculus; experiment: Antihyperglycemic effect in DIO mouse assessed as prolonged antihyperglycemic duration by measuring blood glucose at 100 nmol/kg, sc; type: functional, organism-based
[10] = biological target: T2, Glucagon-like peptide 1 receptor (Mus musculus) (UniProt O35659); experiment: Agonist activity at mouse GLP-1 receptor expressed in HEK293 cells assessed as cAMP level measured after 60 mins by HTRF based assay; type: functional, cell-based; details: filed as agonist
T2 sequence (whole entry): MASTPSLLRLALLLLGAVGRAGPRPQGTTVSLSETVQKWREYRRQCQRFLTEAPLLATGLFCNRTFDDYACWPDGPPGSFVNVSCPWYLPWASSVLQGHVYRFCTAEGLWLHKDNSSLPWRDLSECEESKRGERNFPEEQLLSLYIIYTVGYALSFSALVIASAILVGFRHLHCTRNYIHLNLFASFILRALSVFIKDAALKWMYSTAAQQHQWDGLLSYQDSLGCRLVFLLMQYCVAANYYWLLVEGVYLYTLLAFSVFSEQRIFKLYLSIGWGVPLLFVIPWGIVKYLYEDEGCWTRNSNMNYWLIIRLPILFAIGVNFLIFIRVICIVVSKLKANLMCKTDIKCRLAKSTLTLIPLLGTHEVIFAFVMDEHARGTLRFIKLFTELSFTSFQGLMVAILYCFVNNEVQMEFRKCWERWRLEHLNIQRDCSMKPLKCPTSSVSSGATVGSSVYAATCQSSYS

[11] = biological target: T3, Glucagon receptor (Homo sapiens, UniProt P47871); experiment: Agonist activity at human GCGR expressed in HEK293 cells assessed as cAMP level by measuring relative percent (glucagon EC50/compound EC50) measured after 60 mins by HTRF based assay relative to glucagon; type: functional, cell-based; details: filed as agonist
[12] = test system: Mus musculus; experiment: Reduction in hepatic lipid content in DIO mouse at 30 nmol/kg, sc treated every 2 and half day once measured after 21 days by H and E staining based assay; type: functional, organism-based; details: time 21.0 day
[13] = test system: Mus musculus; experiment: Hypoglycemic effect in ICR mouse treated with 3 g/kg glucose assessed as reduction in blood glucose level at 30 nmol/kg, sc measured upto 120 mins pretreated with GLP-1R and GIPR antagonist by OGTT; type: functional, organism-based
[14] = biological target: T2, Glucagon-like peptide 1 receptor (Mus musculus); experiment: Potency index, ratio of GLP-1 EC50 to test compound EC50 for agonist activity at mouse GLP-1 receptor expressed in HEK293 cells assessed as cAMP level measured after 60 mins by HTRF based assay; type: functional, cell-based; details: filed as agonist
[15] = test system: Mus musculus; experiment: Anorexigenic effect in ICR mouse assessed as decrease in food intake at 30 nmol/kg, sc measured upto 72 hrs by acute food intake study; type: functional, organism-based
[16] = biological target: T4, Gastric inhibitory polypeptide receptor (Homo sapiens) (UniProt P48546); experiment: Agonist activity at human GIPR receptor expressed in HEK293 cells assessed as cAMP level by measuring relative percent (GIP EC50/compound EC50) measured after 60 mins by HTRF based assay relative to GIP; type: functional, cell-based
T4 sequence (whole entry): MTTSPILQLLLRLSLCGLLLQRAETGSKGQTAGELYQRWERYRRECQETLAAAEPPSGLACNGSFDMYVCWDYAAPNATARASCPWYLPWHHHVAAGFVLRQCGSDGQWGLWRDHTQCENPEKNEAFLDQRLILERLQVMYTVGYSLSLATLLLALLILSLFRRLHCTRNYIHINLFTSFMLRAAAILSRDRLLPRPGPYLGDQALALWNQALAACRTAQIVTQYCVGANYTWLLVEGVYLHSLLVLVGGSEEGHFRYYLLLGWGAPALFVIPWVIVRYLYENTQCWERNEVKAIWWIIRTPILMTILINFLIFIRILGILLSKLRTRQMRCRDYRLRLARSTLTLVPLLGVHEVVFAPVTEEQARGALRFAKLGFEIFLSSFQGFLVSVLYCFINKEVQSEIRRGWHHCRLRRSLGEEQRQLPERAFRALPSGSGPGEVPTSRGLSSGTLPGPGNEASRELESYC

[17] = test system: Mus musculus; experiment: Reduction in blood glucose level in non-fasting DIO mouse at 30 nmol/kg, sc treated every 2 and half day once measured after 21 days by glucose tolerance test; type: functional, organism-based; details: time 21.0 day
[18] = biological target: T3, Glucagon receptor; experiment: Agonist activity at human GCGR expressed in HEK293 cells assessed as cAMP level measured after 60 mins by HTRF based assay; type: functional, cell-based
[19] = test system: Mus musculus; experiment: Reduction in total cholesterol in DIO mouse at 30 nmol/kg, sc treated every 2 and half day once measured after 21 days; type: functional, organism-based; details: time 21.0 day
[20] = test system: Mus musculus; experiment: Anorexigenic effect in ICR mouse assessed as decrease in food intake at 10 nmol/kg, sc measured upto 72 hrs by acute food intake study; type: functional, organism-based
[21] = biological target: T5, Gastric inhibitory polypeptide receptor (Homo sapiens, UniProt P48546); experiment: Agonist activity at human GIPR receptor expressed in HEK293 cells assessed as cAMP level measured after 60 mins by HTRF based assay; type: functional, cell-based
T5 sequence (P48546 whole entry): T4 sequence (whole entry)

[22] = test system: Mus musculus; experiment: Reduction in total fat mass in DIO mouse at 30 nmol/kg, sc treated every 2 and half day once measured after 21 days; type: functional, organism-based; details: time 21.0 day
[23] = test system: Mus musculus; experiment: Reduction in serum triglyceride in DIO mouse at 30 nmol/kg, sc treated every 2 and half day once measured after 21 days; type: functional, organism-based; details: time 21.0 day
[24] = biological target: T1, Glucagon-like peptide 1 receptor; experiment: Agonist activity at human GLP-1 receptor expressed in HEK293 cells assessed as cAMP level by measuring relative percent (GLP-1 EC50/compound EC50) measured after 60 mins by HTRF based assay relative to GLP-1; type: functional, cell-based; details: filed as agonist
[25] = test system: Mus musculus; experiment: Hypoglycemic effect in ICR mouse treated with 3 g/kg glucose assessed as reduction in blood glucose level at 10 nmol/kg, sc measured upto 120 mins by acute glucose lowering test; type: functional, organism-based
[26] = test system: Mus musculus; experiment: Reduction in body weight in DIO mouse at 30 nmol/kg, sc treated every 2 and half day once measured after 21 days; type: functional; parameters: scale not given: the % may be the effect or the level left; details: time 21 day
[27] = biological target: Glucagon receptor (Mus musculus) (UniProt Q61606); experiment: Agonist activity at mouse GCGR receptor expressed in HEK293 cells assessed as cAMP level measured after 60 mins by HTRF based assay; type: functional, cell-based; details: filed as agonist
[28] = test system: Mus musculus; experiment: Reduction in serum ALT in DIO mouse at 30 nmol/kg, sc treated every 2 and half day once measured after 21 days; type: functional, organism-based; details: time 21.0 day

T1 sequence (P43220 whole entry): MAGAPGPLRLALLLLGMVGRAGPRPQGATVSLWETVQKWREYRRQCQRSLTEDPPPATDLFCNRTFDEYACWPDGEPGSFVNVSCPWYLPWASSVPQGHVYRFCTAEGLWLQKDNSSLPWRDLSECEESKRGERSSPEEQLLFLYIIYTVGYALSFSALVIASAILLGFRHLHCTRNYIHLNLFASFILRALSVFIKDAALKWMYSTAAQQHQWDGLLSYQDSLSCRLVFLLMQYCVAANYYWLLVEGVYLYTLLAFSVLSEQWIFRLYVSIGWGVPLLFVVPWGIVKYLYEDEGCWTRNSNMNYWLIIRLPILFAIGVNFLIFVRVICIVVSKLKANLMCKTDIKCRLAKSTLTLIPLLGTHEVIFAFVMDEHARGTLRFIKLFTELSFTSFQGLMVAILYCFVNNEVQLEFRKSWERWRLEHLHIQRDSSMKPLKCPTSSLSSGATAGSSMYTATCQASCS
Glucagon receptor (Mus musculus), sequence (Q61606 whole entry): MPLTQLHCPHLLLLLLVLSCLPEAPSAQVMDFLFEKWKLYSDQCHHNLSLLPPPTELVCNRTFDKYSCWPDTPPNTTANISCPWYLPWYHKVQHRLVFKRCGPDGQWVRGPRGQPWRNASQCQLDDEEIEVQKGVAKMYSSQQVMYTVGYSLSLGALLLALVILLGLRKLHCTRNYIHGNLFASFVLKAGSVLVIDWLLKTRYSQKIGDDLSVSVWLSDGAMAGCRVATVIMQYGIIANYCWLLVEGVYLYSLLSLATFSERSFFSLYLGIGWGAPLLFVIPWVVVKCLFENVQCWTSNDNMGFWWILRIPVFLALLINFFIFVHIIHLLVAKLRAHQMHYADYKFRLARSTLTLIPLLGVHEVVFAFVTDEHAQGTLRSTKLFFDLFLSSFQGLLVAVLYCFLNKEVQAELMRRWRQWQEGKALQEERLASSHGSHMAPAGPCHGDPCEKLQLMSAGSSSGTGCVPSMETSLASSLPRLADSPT
T3 sequence (P47871 whole entry): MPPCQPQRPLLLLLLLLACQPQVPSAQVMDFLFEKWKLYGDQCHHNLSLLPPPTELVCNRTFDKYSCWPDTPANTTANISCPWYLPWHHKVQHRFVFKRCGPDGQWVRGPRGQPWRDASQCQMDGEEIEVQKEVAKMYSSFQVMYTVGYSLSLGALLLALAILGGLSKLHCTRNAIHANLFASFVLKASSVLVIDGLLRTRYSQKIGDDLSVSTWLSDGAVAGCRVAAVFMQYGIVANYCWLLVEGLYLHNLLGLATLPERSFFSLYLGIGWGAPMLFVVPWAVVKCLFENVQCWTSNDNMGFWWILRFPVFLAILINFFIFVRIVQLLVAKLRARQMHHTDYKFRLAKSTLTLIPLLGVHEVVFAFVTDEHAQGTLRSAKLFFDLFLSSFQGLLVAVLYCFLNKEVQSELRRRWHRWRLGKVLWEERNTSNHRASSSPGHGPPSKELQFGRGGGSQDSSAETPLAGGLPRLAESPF

CC[C@H](C)[C@H](NC(=O)[C@H](CCCCNC(=O)COCCOCCNC(=O)COCCOCCNC(=O)CC[C@H](NC(=O)CCCCCCCCCCCCCCCCC(=O)O)C(=O)O)NC(=O)[C@H](CCC(=O)O)NC(=O)[C@H](CC(C)C)NC(=O)[C@H](C)NC(=O)[C@H](CCCNC(=N)N)NC(=O)[C@H](CO)NC(=O)[C@H](CCSC)NC(=O)[C@H](CC(=O)O)NC(=O)[C@H](CO)NC(=O)[C@@H](NC(=O)[C@H](Cc1ccccc1)NC(=O)[C@@H](NC(=O)CNC(=O)[C@H](CCC(N)=O)NC(=O)C(C)(C)NC(=O)[C@@H](N)Cc1c[nH]cn1)[C@@H](C)O)[C@@H](C)O)C(=O)N[C@@H](C)C(=O)N[C@@H](C)C(=O)N[C@@H](CCCNC(=N)N)C(=O)N[C@@H](CC(C)C)C(=O)N[C@@H](Cc1ccccc1)C(=O)N[C@H](C(=O)N[C@@H](CC(=O)O)C(=O)N[C@@H](Cc1c[nH]c2ccccc12)C(=O)N[C@@H](CC(C)C)C(=O)N[C@H](C(=O)N[C@@H](CCC(=O)O)C(=O)NCC(=O)NCC(=O)N1CCC[C@H]1C(=O)N[C@@H](CO)C(=O)N[C@@H](CO)C(=O)NCC(=O)N[C@@H](C)C(=O)N1CCC[C@H]1C(=O)N1CCC[C@H]1C(=O)N1CCC[C@H]1C(=O)N[C@@H](CO)C(N)=O)[C@@H](C)CC)C(C)C (H-H[Aib]QGTFTSDMSRALEK([AEEA-AEEA-γGlu-C18 diacid])IAARLFVDWLIEGGPSSGAPPPS-NH2)
EC50 [1]: 0.012 nM
Activity [2]: Active
Activity [3]: Active
Ratio EC50 [4]: 1
Activity [5]: Dose-Dependent Effect
Activity [6]: Active
Activity [7]: Active
Activity [8]: Active
Activity [9]: Active
Activity [10]: Active
Activity [11]: 71%
Activity [12]: Active
Activity [13]: inactive
Ratio EC50 [14]: 1
Activity [15]: Active
Activity [16]: 4%
Activity [17]: Active
EC50 [18]: 0.13 nM
Activity [19]: Active
Activity [20]: Active
EC50 [21]: 0.6 nM
Activity [22]: Active
Activity [23]: Active
Activity [24]: 442%
Activity [25]: Active
Activity [26]: 40.7%
Activity [27]: Active
Activity [28]: Active
